Structures can show the parent of a compound that is named as a salt. Bounds are passed on as bounds.

A short description of data set [1]: Determination of the microsomal half-life / microsomal clearance, human liver microsomes. It counts as in vitro ADME. To be noted: 0.5 μM test substance, 0.25 mg of microsomal protein/mL, NADPH, 37° C. The protocol:
(§1) b) Determination of the Microsomal Half-Life:
(§2) The metabolic stability of the compounds of the invention was determined in the following assay.
(§3) The test substances were incubated in a concentration of 0.5 μM as follows:
(§4) 0.5 μM test substance are preincubated together with liver microsomes from different species (from rat, human or other species) (0.25 mg of microsomal protein/mL) in 0.05 M potassium phosphate buffer of pH 7.4 in microtiter plates at 37° C. for 5 min. The reaction is started by adding NADPH (1 mg/mL). After 0, 5, 10, 15, 20 and 30 min, 50 μl aliquots are removed, and the reaction is immediately stopped and cooled with the same volume of acetonitrile. The samples are frozen until analyzed. The remaining concentration of undegraded test substance is determined by MSMS. The half-life (T½) is determined from the gradient of the signal of test substance/unit time plot, it being possible to calculate the half-life of the test substance, assuming first order kinetics, from the decrease in the concentration of the compound with time. The microsomal clearance (mCl) is calculated from mCl=ln 2/T½/(content of microsomal protein in mg/mL)×1000 [mL/min/mg] (modified from references: Di, The Society for Biomoleculur Screening, 2003, 453-462; Obach, DMD, 1999 vol 27. N 11, 1350-1359).
A general note: Liver microsomes are vesicles of endoplasmic reticulum, rich in cytochrome P450 enzymes.

Another data set has as its target PDE10A (UniProt Q9Y233). The experiment in a line: Measurement of PDE activity (HTRF cAMP kit, recombinant PDE10A). It counts as biochemical, human, rat and mouse. Particulars: substrate 20 nM, 60 minutes at 29° C. The procedure:
a) Measurement of PDE Activity
The recombinant PDE proteins are used in in vitro enzymatic reaction for measurement of PDE activity. These recombinant proteins, including PDE10A (human, rat and mouse PDE10) and isoforms of PDEs 1, 3, 4, and 5, were purchased from commercial vendor BPS Bioscience. The enzymatic activity of PDEs was determined by cAMP measurement kit from CisBio (IBA) using HTRF technology.
The PDE enzymatic reaction was carried out in assay buffer (20 mM Tris-HCl pH 7.5, 10 mM MgCl2, 0.1% bovine serum albumin) containing enzyme and substrate. […] The substrate cyclic nucleotide (cAMP or cGMP) concentration used in the assay was 20 nM for PDE10, and 100 nM for other PDEs. The inhibitory effect of compound was determined by incubating various concentration of inhibitor in the enzymatic assay. […] Next, the compound at varying concentration was mixed with PDE enzyme. The reaction was initiated by addition of cyclic nucleotide substrate, and incubated for 60 minutes at 29° C. The reaction was stopped by addition of lysis buffer from the assay kit. The cAMP-d2 and anti-cAMP cryptate in the lysis buffer detected the level of cAMP left from the PDE hydrolysis reaction. […] Thus, IC50 value of inhibitor can be obtained by plotting inhibitor concentration against PDE activity at that concentration.
Background: Time-resolved FRET reads energy transfer from a long-lived donor to a nearby acceptor.

Data set [2] in a line: Determination of the microsomal half-life / microsomal clearance, rat liver microsomes. To be noted: 0.5 μM test substance, 0.25 mg of microsomal protein/mL, NADPH, 37° C. The class given is in vitro ADME. The procedure:
as §1, §2, §3, §4

Consider “3-[4-oxo-7-(pyridin-4-yl)-5-(2,2,2-trifluoroethyl)-4,5-dihydrothieno[2,3-d]pyridazin-3-yl]benzonitrile [Example 127]”, for which the “Human mCl” value in data set [1] was “++ (++: <100 μl min^−1 mg^−1)”. Further, the half-maximal inhibitory concentration (IC50) at PDE10A is below 100 nM. Also, in data set [2], the “Rat mCl” value is listed as “++ (++: <100 μl min^−1 mg^−1)”.
With `Cn1nc(-c2ccncc2)c2scc(NC3COC3)c2c1=O` [Example 2, 5-methyl-3-(oxetan-3-ylamino)-7-(pyridin-4-yl)thieno[2,3-d]pyridazin-4(5H)-one], the “Human mCl” value in data set [1] is “++ (++: <100 μl min^−1 mg^−1)”. The IC50 at PDE10A was 200 to 500 nM. In addition, the “Rat mCl” value in data set [2] was “+ (+: 100-220 μl min^−1 mg^−1)”.
The matching figures for `Cn1nc(-c2ccncc2)c2scc(N3CCOCC3)c2c1=O` [Example 3, 5-methyl-3-(morpholin-4-yl)-7-(pyridin-4-yl)thieno[2,3-d]pyridazin-4(5H)-one]: “++ (++: <100 μl min^−1 mg^−1)”, 200 to 500 nM and “++ (++: <100 μl min^−1 mg^−1)”.
Turning to `Cn1nc(-c2ccncc2)c2scc(-c3cncnc3)c2c1=O` [Example 6, 5-methyl-7-(pyridin-4-yl)-3-(pyrimidin-5-yl)thieno[2,3-d]pyridazin-4(5H)-one], the 50% inhibitory concentration (IC50) on PDE10A is below 100 nM.
Take `Cn1nc(-c2ccncc2)c2scc(-c3cncnc3)c2c1=O` [Example 11, 5-methyl-7-(pyridin-4-yl)-3-(pyrimidin-5-yl)thieno[2,3-d]pyridazin-4(5H)-one (hydrochloride salt)]: in data set [1], the “Human mCl” value is listed as “++ (++: <100 μl min^−1 mg^−1)”. Further, the IC50 on PDE10A ((hydrochloride salt)) fell in the range of 100 to 200 nM. Moreover, the “Rat mCl” value in data set [2] is on record as “++ (++: <100 μl min^−1 mg^−1)”.
For the compound `Cn1ccnc1COc1nn(C)c(=O)c2c(-c3ccncc3)csc12` [Example 56, 5-methyl-7-[(1-methyl-1H-imidazol-2-yl)methoxy]-3-(pyridin-4-yl)thieno[2,3-d]pyridazin-4(5H)-one], on PDE10A, the IC50 was in the range of 200 to 500 nM.
Same read-out and setting: next, `Cn1nc(OC2Cc3ccccc3C2)c2scc(-c3ccncc3)c2c1=O` [Example 60, 7-(2,3-dihydro-1H-inden-2-yloxy)-5-methyl-3-(pyridin-4-yl)thieno[2,3-d]pyridazin-4(5H)-one trifluoroacetate]: 200 to 500 nM; `Cn1nc(OCc2nc3ccccc3s2)c2scc(-c3ccncc3)c2c1=O` [Example 71, 7-(1,3-benzothiazol-2-ylmethoxy)-5-methyl-3-(pyridin-4-yl)thieno[2,3-d]pyridazin-4(5H)-one trifluoroacetate]: below 100 nM.
Regarding `Cc1cnc(Cl)c(Oc2nn(C)c(=O)c3c(-c4ccncc4)csc23)c1` [Example 90, 7-[(2-chloro-5-methylpyridin-3-yl)oxy]-5-methyl-3-(pyridin-4-yl)thieno[2,3-d]pyridazin-4(5H)-one trifluoroacetate], the IC50 on PDE10A was below 100 nM.
On the same count and under the same terms, next, `Cn1nc(-c2cnn(CC(F)(F)F)c2)c2scc(-c3ccncc3)c2c1=O` [Example 100, 5-methyl-3-(pyridin-4-yl)-7-[1-(2,2,2-trifruoroethyl)-1H-pyrazol-4-yl]thieno[2,3-d]pyridazin-4(5H)-one bis(trifluoroacetate)]: below 100 nM.
Still for that read-out and setting: in the case of `COc1ccc(-c2nn(C)c(=O)c3c(-c4ccncc4)csc23)cc1OC` [Example 102, 7-(3,4-dimethoxyphenyl)-5-methyl-3-(pyridin-4-yl)thieno[2,3-d]pyridazin-4(5H)-one trifluoroacetate] it was below 100 nM; in that of `Cn1nc(-c2ccnc(F)c2)c2scc(-c3ccncc3)c2c1=O` [Example 104, 7-(2-fluoropyridin-4-yl)-5-methyl-3-(pyridin-4-yl)thieno[2,3-d]pyridazin-4(5H)-one bis(trifluoroacetate)], 100 to 200 nM.
Same read-out and setting: next, `Cn1nc(-c2cccc(Cl)c2)c2scc(-c3ccncc3)c2c1=O` [Example 105, 7-(3-chlorophenyl)-5-methyl-3-(pyridin-4-yl)thieno[2,3-d]pyridazin-4(5H)-one trifluoroacetate]: 200 to 500 nM; `Cn1nc(-c2cccc(O)c2)c2scc(-c3ccncc3)c2c1=O` [Example 107, 7-(3-hydroxyphenyl)-5-methyl-3-(pyridin-4-yl)thieno[2,3-d]pyridazin-4(5H)-one trifluoroacetate (salt)]: below 100 nM; `Cn1nc(-c2ccc(Cl)cc2)c2scc(-c3ccncc3)c2c1=O` [Example 110, 7-(4-chlorophenyl)-5-methyl-3-(pyridin-4-yl)thieno[2,3-d]pyridazin-4(5H)-one trifluoroacetate]: 200 to 500 nM.
With `COc1cc(OC)cc(-c2nn(C)c(=O)c3c(-c4ccncc4)csc23)c1` [Example 111, 7-(3,5-dimethoxyphenyl)-5-methyl-3-(pyridin-4-yl)thieno[2,3-d]pyridazin-4(5H)-one trifluoroacetate], on PDE10A, the IC50 lay within 100 to 200 nM.
The same measure, in the same setting: next, `Cn1nc(-c2cccc(OC(F)(F)F)c2)c2scc(-c3ccncc3)c2c1=O` [Example 112, 5-methyl-3-(pyridin-4-yl)-7-[3-(trifluoromethoxy)phenyl]thieno[2,3-d]pyridazin-4(5H)-one trifluoroacetate]: 200 to 500 nM.
Still for that read-out and setting: next, `COc1ccccc1-c1nn(C)c(=O)c2c(-c3ccncc3)csc12` [Example 113, 7-(2-methoxyphenyl)-5-methyl-3-(pyridin-4-yl)thieno[2,3-d]pyridazin-4(5H)-one trifluoroacetate]: 200 to 500 nM.
The same measure, in the same setting: next, `Cn1nc(-c2cccc(C(F)(F)F)c2)c2scc(-c3ccncc3)c2c1=O` [Example 114, 5-methyl-3-(pyridin-4-yl)-7-[3-(trifluoromethyl)phenyl]thieno[2,3-d]pyridazin-4(5H)-one trifluoroacetate]: 100 to 200 nM.
On to `Cn1nc(-c2ccccc2F)c2scc(-c3ccncc3)c2c1=O` [Example 115, 7-(2-fluorophenyl)-5-methyl-3-(pyridin-4-yl)thieno[2,3-d]pyridazin-4(5H)-one trifluoroacetate], for which the half-inhibitory concentration (IC50) on PDE10A was 200 to 500 nM.
Consider `Cn1nc(-c2cccc(F)c2)c2scc(-c3ccncc3)c2c1=O` [Example 116, 7-(3-fluorophenyl)-5-methyl-3-(pyridin-4-yl)thieno[2,3-d]pyridazin-4(5H)-one trifluoroacetate], for which the half-inhibitory concentration (IC50) on PDE10A was 200 to 500 nM.
On the same count and under the same terms, next, `Cn1nc(-c2ccc(C(F)(F)F)cc2)c2scc(-c3ccncc3)c2c1=O` [Example 117, 5-methyl-3-(pyridin-4-yl)-7-[4-(trifluoromethyl)phenyl]thieno[2,3-d]pyridazin-4(5H)-one trifluoroacetate]: 100 to 200 nM.
Consider `CN(C)c1cccc(-c2nn(C)c(=O)c3c(-c4ccncc4)csc23)c1` [Example 119, 7-[3-(dimethylamino)phenyl]-5-methyl-3-(pyridin-4-yl)thieno[2,3-d]pyridazin-4(5H)-one bis(trifluoroacetate)], for which the concentration for half-maximal inhibition (IC50) on PDE10A is below 100 nM.
On the same count and under the same terms, in the case of `Cc1cc(-c2nn(C)c(=O)c3c(-c4ccncc4)csc23)ccn1` [Example 120, 5-methyl-7-(2-methylpyridin-4-yl)-3-(pyridin-4-yl)thieno[2,3-d]pyridazin-4(5H)-one bis(trifluoroacetate)] it was below 100 nM.
The same measure, in the same setting: in the case of `Cc1ccc(-c2nn(C)c(=O)c3c(-c4ccncc4)csc23)cc1` [Example 121, 5-methyl-7-(4-methylphenyl)-3-(pyridin-4-yl)thieno[2,3-d]pyridazin-4(5H)-one trifluoroacetate] it was 100 to 200 nM.
Same read-out and setting: next, `Cn1nc(OCc2ccc3c(c2)CNC3)c2scc(-c3ccncc3)c2c1=O` [Example 126, 7-(2,3-dihydro-1H-isoindol-5-ylmethoxy)-5-methyl-3-(pyridin-4-yl)thieno[2,3-d]pyridazin-4(5H)-one bis(trifluoroacetate)]: 200 to 500 nM; `N#CCCn1nc(-c2ccncc2)c2scc(-c3ccncc3)c2c1=O` [Example 140, 3-[4-oxo-3,7-di(pyridin-4-yl)thieno[2,3-d]pyridazin-5(4H)-yl]propanenitrile]: 100 to 200 nM.
Regarding “methyl 3-({[5-methyl-4-oxo-3-(pyridin-4-yl)-4,5-dihydrothieno[2,3-d]pyridazin-7-yl]oxy}methyl)benzoate trifluoroacetate [Example 72]”, the half-inhibitory concentration (IC50) on PDE10A is below 100 nM.

Usually IC50 stands for the midpoint of a concentration-inhibition curve.
